These results are taken from patent publication US7674819B2 (Warner-Lambert Company LLC, priority 2005, dated 2010).

For this assay, the system named is male Syrian hamsters. Briefly: Animal Model for Inhibition of Sebum Production (hamster ear, HPLC of sebum lipids). Format: in vivo, Syrian hamster. Particulars: twice daily, five days a week, 4 weeks; for % CE reduction: cholesterol ester vs vehicle control; for % WE reduction: wax ester vs vehicle control. As to the method: Luderschmidt et al describes an animal model for testing whether compounds are capable of modulating sebum secretion. Arch. Derm. Res. 258, 185-191 (1977). This model uses male Syrian hamsters, whose ears contain sebaceous glands. Based on binding data and cellular assay data, selected compounds were chosen for screening in this model. Those compounds included the products of Examples 1, 20, 81, 82, and 109.
Testing for sebum inhibition was carried out in the following manner. Male Syrian hamsters aged 9 to 10 weeks were introduced into the laboratory environment and acclimated for 2 weeks prior to use in the study. Each group consisted of 5 animals and run in parallel with vehicle and positive controls. Prior to administration, a sufficient quantity each compound was dissolved in 1 mL of a solvent consisting of ethanol, transcutol, and propylene glycol (60/20/20% v/v/v) to achieve the final concentration specified in Table VIII below.
Animals were dosed topically twice daily, five days a week, for 4 weeks. Each dose consisted of 25 micro liters of vehicle control or drug. The dose was applied to the ventral surfaces of both the right and left ears. All animals were sacrificed approximately 18-24 hours after the final dose. The right ears were collected from each animal and used for sebum analysis.
The ears were prepped for HPLC analysis in the following manner. One 8 mm distal biopsy punch was taken, just above the anatomical “V” mark in the ear to normalize the sample area. The punch was pulled apart. The ventral biopsy surface (the area where the topical dose was directly applied to the sebaceous glands) was retained for testing and the dorsal surface of the biopsy punch was discarded.
Tissue samples were blown with N2 gas and stored at −80° C. under nitrogen until HPLC analysis. In addition to ear samples, an aliquot of each drug and vehicle (at least 250 ul) was also stored at −80° C. for inclusion in the HPLC analysis.
HPLC analysis was carried out on an extract of the tissue sample. Tissue samples were contacted with 3 ml of solvent (a 4:1 admixture of 2,2,4-trimethylpentane and isopropyl alcohol). The mixture was shaken for 15 minutes and stored overnight at room temperature, protected from light. The next morning 1 milliliter of water was added to the sample and shaken for 15 minutes. The sample was then centrifuged at approximately 1500 rpm for 15 minutes. Two ml of the organic phase (top layer) was transferred to a glass vial, dried at 37° C., under nitrogen, for approximately 1 hour, and then lyophilized for approximately 48 hours. The samples were then removed from the lyophilizer and each vial was reconstituted with 600 μl of solvent A (trimethylpentane/tetrahydrofuran (99:1). The samples were then recapped and vortexed for 5 minutes.
200 μl of each sample was then transferred to a pre-labeled 200 μl HPLC vial with 200 μL glass inserts. The HPLC vials were placed in the autosampler tray for the Agilent 1100 series HPLC unit. The Agilent 1100 HPLC system consisted of a thermostated autosampler, a quaternary pump, a column heater, and an A/D interface module. All components were controlled by Agilent ChemStation software. A Waters Spherisorb S3W 4.6×100 mm analytical column was maintained at 30° C. by the Agilent column heater unit.
The HPLC autosampler was programmed to maintain the sample temperature at 20 C throughout the run.
10 uL of each sample was injected in triplicate into the column. Two solvents were used for the solvent gradient. Solvent A was an admixture of trimethylpentane and tetrahydrofuran (99:1). Solvent B was ethylacetate. The gradient utilized is described in the table below: […]
The Sedex 75 Evaporative Light Scattering Detector (ELSD) was operated at 45° C. with a gain of 5, and N2 pressure maintained at 3.1 bar. Analog signal obtained by the instrument was sent to the Agilent A/D interface module where it was converted to a digital output. […]

Each structure is given as a SMILES string.

Turning to `CCCCN1CC(C)(C)C(Oc2ccc(C#N)c(C(F)(F)F)c2)C1=O` (single isomer, unassigned; (+)) [Example 20, (+)-4-(1-Butyl-4,4-dimethyl-2-oxo-pyrrolidin-3-yloxy)-2-trifluoromethyl-benzonitrile], where the note is “topical 2%”, the “% CE reduction” value is 83%, the “Sum of WE & CE” value was determined as 149 and the “% WE reduction” value is given as 66%.
On to `CCCS(=O)(=O)N1CC(C)(C)C(Oc2ccc(C#N)c(C(F)(F)F)c2)C1=O` (single isomer, unassigned; (+)) [Example 82, (+)-4-[4,4-Dimethyl-2-oxo-1-(propane-1-sulfonyl)-pyrrolidin-3-yloxy]-2-trifluoromethyl-benzonitrile], for which, where the note is “topical 1%”, the “% CE reduction” value was determined as 72%, the “Sum of WE & CE” value was 129 and the “% WE reduction” value stood at 57%.
Take `CC[C@H](C)N1CC(C)(C)[C@@H](Oc2ccc(C#N)c(C(F)(F)F)c2)C1=O` [Example 1, (3R,S)-(+)-4-(1-sec-Butyl-4,4-dimethyl-2-oxo-pyrrolidin-3-yloxy)-2-trifluoromethyl-benzonitrile]: under “topical 1%”, the “% CE reduction” value is 70%, the “Sum of WE & CE” value came to 125 and the “% WE reduction” value stood at 55%.
Regarding `CCCN1CC(C)(C)C(Oc2ccc(C#N)c(C(F)(F)F)c2)C1=O` (stereo not drawn) [Example 4, 4-(4,4-dimethyl-2-oxo-1-propyl-pyrrolidin-3-yloxy)-2-trifluoromethyl-benzonitrile], where the note is “topical 3%”, the “% CE reduction” value stood at 76%, the “Sum of WE & CE” value is listed as 166 and the “% WE reduction” value turned out to be 90%.
Take `CCCN1CC(C)(C)[C@@H](Oc2ccc(C#N)c(C(F)(F)F)c2)C1=O` [Example 4A, (+)-4-(1-Propyl-4,4-dimethyl-2-oxo-pyrrolidin-3-yloxy)-2-trifluoromethyl-benzonitrile (E2)]: for the setting “topical 1%”, the “% CE reduction” value amounted to 76%, the “Sum of WE & CE” value was found to be 161 and the “% WE reduction” value is reported as 85%.
The corresponding values for `CC1(C)CN(S(C)(=O)=O)C(=O)C1Oc1ccc(C#N)c(C(F)(F)F)c1` (stereo not drawn) [Example 81, 4-(1-methanesulfonyl-4,4-dimethyl-2-oxo-pyrrolidin-3-yloxy)-2-trifluoromethyl-benzonitrile] are 12%, 20 and 8%.
In the case of `CC(c1ccccc1)N1CC(C)(C)C(Oc2ccc(C#N)cc2Cl)C1=O` (stereo not drawn) [Example 109], for the setting “topical 1%”, the “% CE reduction” value stood at 64%, the “Sum of WE & CE” value is given as 116 and the “% WE reduction” value turned out to be 52%.
